{"source": "patent US7815936B2", "about": "“Use of granular materials based on pyrogenically produced silicon dioxide in pharmaceutical compositions” (Evonik Degussa GmbH, priority 2001, dated 2010)", "origin": "cited, not measured here", "settings": "pure active constituent in water, reached only after shaking over several days"}
{"smiles": "C#C[C@]1(O)CC[C@H]2[C@@H]3CCc4cc(O)ccc4[C@H]3CC[C@@]21C", "note": "[ethinyl oestradiol]", "values": [{"measurement": "saturation equilibrium value", "result": 1.1, "unit": "mg/100 ml"}]}
